{
  "source": "paper PMC8113725",
  "about": "“Structure–activity relationship of ipglycermide binding to phosphoglycerate mutases” (The Journal of Biological Chemistry, 2021)",
  "key": {"E. coli iPGM [1]": {"target": "T1, E. coli iPGM (Escherichia coli, UniProt P37689)", "experiment": "SPR binding kinetics and saturation binding, biotinylated iPGM on Biotin CAPture chip (Biacore S200)", "details": "for koff / kon: LoQ = limit of quantitation"}, "C. elegans iPGM [2]": {"target": "T2, C. elegans iPGM (Caenorhabditis elegans, UniProt G5EFZ1)", "experiment": "SPR binding kinetics and saturation binding, biotinylated iPGM on Biotin CAPture chip (Biacore S200)"}, "E. coli iPGM [3]": {"target": "T1, E. coli iPGM", "experiment": "biochemical"}, "B. malayi iPGM": {"target": "T3, B. malayi iPGM (Brugia malayi, UniProt Q4VWF8)", "T3 sequence (Q4VWF8 1-515)": "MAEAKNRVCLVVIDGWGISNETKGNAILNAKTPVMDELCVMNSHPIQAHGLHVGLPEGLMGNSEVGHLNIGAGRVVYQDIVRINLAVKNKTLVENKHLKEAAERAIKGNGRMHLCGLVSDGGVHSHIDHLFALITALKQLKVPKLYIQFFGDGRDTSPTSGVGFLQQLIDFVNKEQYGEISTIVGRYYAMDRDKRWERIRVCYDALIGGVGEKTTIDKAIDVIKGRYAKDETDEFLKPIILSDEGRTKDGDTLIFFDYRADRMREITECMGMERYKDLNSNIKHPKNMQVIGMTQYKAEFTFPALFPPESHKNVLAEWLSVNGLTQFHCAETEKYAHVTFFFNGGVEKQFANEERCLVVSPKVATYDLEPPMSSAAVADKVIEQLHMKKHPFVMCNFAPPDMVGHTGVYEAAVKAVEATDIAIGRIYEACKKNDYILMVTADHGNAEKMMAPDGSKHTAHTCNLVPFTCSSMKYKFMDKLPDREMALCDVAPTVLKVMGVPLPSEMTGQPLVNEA", "experiment": "biochemical", "type": "binding"}, "D. immitis iPGM": {"target": "D. immitis iPGM (Dirofilaria immitis, UniProt F4ZE01)", "experiment": "biochemical", "details": "Di iPGM Ave IC50 (M)"}, "C. elegans iPGM [4]": {"target": "T2, C. elegans iPGM", "details": "read-out: KD, prior estimate; zone boundary analysis from a cross-titration of C. elegans iPGM enzyme versus Ce-2; cited from earlier work"}, "[5]": {"details": "SPR, Req hyperbolic fit where steady state reached, else koff/kon"}, "[6]": {"details": "Supplementary Table 5, SPR, E.c. iPGM"}, "[7]": {"details": "SPR, 25 °C, global fit to 1:1 binding model"}},
  "note": "Where two headings read alike, the source gives them in different places.",
  "data": [
    {"smiles": "CC(C)C[C@H](NC(=O)[C@H](Cc1ccc(O)cc1)NC(=O)[C@@H]1CSCC(=O)N[C@H](Cc2ccc(O)cc2)C(=O)N[C@@H](CC(=O)O)C(=O)N[C@@H](Cc2ccc(O)cc2)C(=O)N2CCC[C@H]2C(=O)NCC(=O)N[C@@H](CC(=O)O)C(=O)N[C@@H](Cc2ccc(O)cc2)C(=O)N1)C(=O)N[C@@H](Cc1ccc(O)cc1)C(=O)NCC(=O)N[C@H](C(=O)N[C@@H](CS)C(N)=O)[C@@H](C)O", "note": "[Ce-2]", "values": [
      {"measurement": "koff", "setting": "E. coli iPGM [1]; SPR, 25 °C, global fit to 1:1 binding model, read-out: koff", "result": 0.0048, "unit": "s⁻¹"},
      {"measurement": "kon", "setting": "E. coli iPGM [1]; SPR, 25 °C, global fit to 1:1 binding model, read-out: kon", "result": 100000, "unit": "M⁻¹ s⁻¹"},
      {"measurement": "Kd", "setting": "E. coli iPGM [1]; [5]", "result": "~70", "unit": "nM"},
      {"measurement": "koff", "setting": "E. coli iPGM [1]; [6]", "result": 0.00484, "unit": "s⁻¹"},
      {"measurement": "kon", "setting": "E. coli iPGM [1]; [6]", "result": 102000, "unit": "M⁻¹ s⁻¹"},
      {"measurement": "Kd", "setting": "E. coli iPGM [1]; Supplementary Table 5, SPR, E.c. iPGM, unit inferred", "result": 69.2, "unit": "nM"},
      {"measurement": "Kd", "setting": "C. elegans iPGM [2]", "result": 0.0382, "unit": "nM"},
      {"measurement": "koff", "setting": "C. elegans iPGM [2]", "result": "3.23e-05", "unit": "s⁻¹"},
      {"measurement": "kon", "setting": "C. elegans iPGM [2]", "result": "1.11e+06", "unit": "M⁻¹ s⁻¹"},
      {"measurement": "koff", "setting": "C. elegans iPGM [2]; [7]", "result": "3.2e-05", "unit": "s⁻¹"},
      {"measurement": "kon", "setting": "C. elegans iPGM [2]; [7]", "result": "1.1e+06", "unit": "M⁻¹ s⁻¹"},
      {"measurement": "IC50", "setting": "E. coli iPGM [3]; IC50", "result": "> 100", "unit": "nM"},
      {"measurement": "IC50", "setting": "E. coli iPGM [3]; […]", "result": 129, "unit": "nM"},
      {"measurement": "koff", "setting": "B. malayi iPGM", "result": 0.000224, "unit": "s⁻¹"},
      {"measurement": "kon", "setting": "B. malayi iPGM", "result": 482000, "unit": "M⁻¹ s⁻¹"},
      {"measurement": "Kd", "setting": "B. malayi iPGM; [5]", "result": 0.5, "unit": "nM"},
      {"measurement": "Kd", "setting": "B. malayi iPGM; Supplementary Table 5, SPR, B.m. iPGM, unit inferred", "result": 0.47, "unit": "nM"},
      {"measurement": "koff", "setting": "B. malayi iPGM; [7]", "result": 0.00022, "unit": "s⁻¹"},
      {"measurement": "kon", "setting": "B. malayi iPGM; [7]", "result": 480000, "unit": "M⁻¹ s⁻¹"},
      {"measurement": "IC50", "setting": "D. immitis iPGM", "result": "8.27e-10", "unit": "M"},
      {"measurement": "Kd", "setting": "C. elegans iPGM [4]", "result": 0.07, "unit": "nM"}
    ]}
  ]
}
